In patent publication US6635635B2, “Benzothiadiazine compounds” (Les Laboratoires Servier, priority 2000, dated 2003):

Columns and labels:
[1] = system: AMPA receptor; assay: Study of excitatory fluxes induced by AMPA in Xenopus oocytes (2-electrode voltage-clamp); type: cell-based; conditions: Xenopus oocytes injected with poly(A+) mRNA from rat cerebral cortex; AMPA 10 μM; 20-24° C.
Method: Study of Excitatory Fluxes Induced by AMPA in Xenopus oocytes
mRNAs are prepared from cerebral cortex of male Wistar rat by the guanidium thiocyanate/phenol/chloroform method. The poly (A^+) mRNAs are isolated by chromatography on oligo-dT cellulose and injected with 50 ng per oocyte. The oocytes are left for 2 to 3 days' incubation at 18° C. to enable expression of the receptors and are then stored at 8-10° C.
Electrophysiological recording is carried out in a Plexiglass® chamber at 20-24° C. in an OR2 medium (J. Exp. Zool., 1973, 184, 321-334) by the 2-electrode “voltage-clamp” method, with a 3rd electrode being placed in the bath to serve as reference.
All the compounds are administered via the incubation medium and the electric current is measured at the end of the period of administration. AMPA is used in a concentration of 10 μM. For each compound studied, there is determined the concentration that doubles (EC2X) or quintuples (EC5X) the intensity of the flux induced by AMPA alone (5 to 50 nA).

SMILES	melting point [°C]	EC2X (concentration that doubles the intensity of the flux induced by AMPA alone) [1] [µM]
Cc1cccc(C(=O)Oc2ccc3c(c2)S(=O)(=O)NC2CCCN32)c1 (stereo not drawn) [Example 29, 5,5-Dioxo-2,3,3a,4-tetrahydro-1H-pyrrolo[2,1-c][1,2,4]-benzothiadiazin-7-yl 3-methylbenzoate]	214 to 218	–
CC(=O)Oc1ccc2c(c1)S(=O)(=O)NC1CCCN21 (stereo not drawn) [Ex. 7, 5,5-Dioxo-2,3,3a,4-tetrahydro-1H-pyrrolo[2,1c][1,2,4]benzothiadiazin-7-yl acetate]	–	34
O=C(Oc1ccc2c(c1)S(=O)(=O)NC1CCCN21)c1ccoc1 (stereo not drawn) [Example 35, 5,5-Dioxo-2,3,3a,4-tetrahydro-1H-pyrrolo[2,1-c][1,2,4]-benzothiadiazin-7-yl 3-furancarboxylate]	185 to 187	–
O=C(Oc1ccc2c(c1)S(=O)(=O)NC1CCCN21)c1cccc(Cl)c1 (stereo not drawn) [Example 26, 5,5-Dioxo-2,3,3a,4-tetrahydro-1H-pyrrolo[2,1-c][1,2,4]-benzothiadiazin-7-yl 3-chlorobenzoate]	243 to 247	–
N#Cc1ccc(C(=O)Oc2ccc3c(c2)S(=O)(=O)NC2CCCN32)cc1 (stereo not drawn) [Example 27, 5,5-Dioxo-2,3,3a,4-tetrahydro-1H-pyrrolo[2,1-c][1,2,4]-benzothiadiazin-7-yl 4-cyanobenzoate]	260 to 264	–
O=C(Oc1ccc2c(c1)S(=O)(=O)NC1CCCN21)c1cccs1 (stereo not drawn) [Ex. 34, 5,5-Dioxo-2,3,3a,4-tetrahydro-1H-pyrrolo[2,1-c][1,2,4]-benzothiadiazin-7-yl 2-thiophenecarboxylate]	212 to 214	1.3
O=C(C=Cc1ccccc1)Oc1ccc2c(c1)S(=O)(=O)NC1CCCN21 (stereo not drawn) [Example 23, 5,5-Dioxo-2,3,3a,4-tetrahydro-1H-pyrrolo[2,1-c][1,2,4]-benzothiadiazin-7-yl 3-phenyl-2-propenoate]	193 to 198	–
O=C(Oc1ccc2c(c1)S(=O)(=O)NC1CCCN21)C1CCCCC1 (stereo not drawn) [Example 14, 5,5-Dioxo-2,3,3a,4-tetrahydro-1H-pyrrolo[2,1-c][1,2,4]-benzothiadiazin-7-yl cyclohexanecarboxylate]	157	–
Cc1ccccc1C(=O)Oc1ccc2c(c1)S(=O)(=O)NC1CCCN21 (stereo not drawn) [Example 30, 5,5-Dioxo-2,3,3a,4-tetrahydro-1H-pyrrolo[2,1-c][1,2,4]-benzothiadiazin-7-yl 2-methylbenzoate]	218 to 221	–
CC(=O)Oc1ccc2c(c1)S(=O)(=O)NC1CCCN21 (single isomer, unassigned) [Ex. 9, 5,5-Dioxo-2,3,3a,4-tetrahydro-1H-pyrrolo[2,1-c][1,2,4]benzothiadiazin-7-yl acetate, β isomer levo]	–	296
O=C(Oc1ccc2c(c1)S(=O)(=O)NC1CCCN21)c1ccccc1 (stereo not drawn) [Ex. 11, 5,5-Dioxo-2,3,3a,4-tetrahydro-1H-pyrrolo[2,1-c][1,2,4]benzothiadiazin-7-yl benzoate]	–	5
O=S1(=O)NC2CCCN2c2cc(F)c(O)cc21 (stereo not drawn) [Ex. 4, 5,5-Dioxo-8-fluoro-2,3,3a,4-tetrahydro-1H-pyrrolo[2,1-c][1,2,4]-benzothiadiazin-7-ol]	–	35
O=C(Oc1ccc2c(c1)S(=O)(=O)NC1CCCN21)c1ccc(-c2ccccc2)cc1 (stereo not drawn) [Example 21, 5,5-Dioxo-2,3,3a,4-tetrahydro-1H-pyrrolo[2,1-c][1,2,4]-benzothiadiazin-7-yl [1,1′-biphenyl]-4-carboxylate]	249 to 253	–
O=C(Cc1ccccc1)Oc1ccc2c(c1)S(=O)(=O)NC1CCCN21 (stereo not drawn)	169 to 171	–
Cl.O=C(Oc1ccc2c(c1)S(=O)(=O)NC1CCCN21)c1ccncc1 (stereo not drawn)	243 to 247	–
Cc1ccc(C(=O)Oc2ccc3c(c2)S(=O)(=O)NC2CCCN32)cc1 (stereo not drawn) [Ex. 28, 5,5-Dioxo-2,3,3a,4-tetrahydro-1H-pyrrolo[2,1-c][1,2,4]-benzothiadiazin-7-yl 4-methylbenzoate]	198 to 200	3.6
CC(=O)Oc1ccc2c(c1)S(=O)(=O)NC1CCCN21 (single isomer, unassigned) [Ex. 8, 5,5-Dioxo-2,3,3a,4-tetrahydro-1H-pyrrolo[2,1-c][1,2,4]benzothiadiazin-7-yl acetate, α isomer dextro]	–	20
O=C(Oc1ccc2c(c1)S(=O)(=O)NC1CCCN21)C1CCCC1 (stereo not drawn) [Example 16, 5,5-Dioxo-2,3,3a,4-tetrahydro-1H-pyrrolo[2,1-c][1,2,4]-benzothiadiazin-7-yl cyclopentanecarboxylate]	148 to 150	–
COc1ccc(C(=O)Oc2ccc3c(c2)S(=O)(=O)NC2CCCN32)cc1 (stereo not drawn) [Example 24, 5,5-Dioxo-2,3,3a,4-tetrahydro-1H-pyrrolo[2,1-c][1,2,4]-benzothiadiazin-7-yl 4-methoxybenzoate]	216 to 221	–
O=C(Oc1ccc2c(c1)S(=O)(=O)NC1CCCN21)c1cccnc1 (stereo not drawn) [Ex. 37, 5,5-Dioxo-2,3,3a,4-tetrahydro-1H-pyrrolo[2,1-c][1,2,4]-benzothiadiazin-7-yl nicotinate]	227 to 230	4.0
Cl.O=C(Oc1ccc2c(c1)S(=O)(=O)NC1CCCN21)c1ccccn1 (stereo not drawn)	227 to 230	–
O=C(Oc1ccc2c(c1)S(=O)(=O)NC1CCCN21)c1ccsc1 (stereo not drawn) [Example 33, 5,5-Dioxo-2,3,3a,4-tetrahydro-1H-pyrrolo[2,1-c][1,2,4]-benzothiadiazin-7-yl 3-thiophenecarboxylate]	208 to 212	–
O=S1(=O)NC2CCCN2c2ccc(O)cc21 (stereo not drawn) [Ex. 1, 5,5-Dioxo-2,3,3a,4-tetrahydro-1H-pyrrolo[2,1-c][1,2,4]benzothiadiazin-7-ol]	–	12
N#Cc1cccc(C(=O)Oc2ccc3c(c2)S(=O)(=O)NC2CCCN32)c1 (stereo not drawn) [Example 31, 5,5-Dioxo-2,3,3a,4-tetrahydro-1H-pyrrolo[2,1-c][1,2,4]-benzothiadiazin-7-yl 3-cyanobenzoate]	203 to 206	–
O=C(Oc1ccc2c(c1)S(=O)(=O)NC1CCCN21)C1CCC1 (stereo not drawn) [Example 17, 5,5-Dioxo-2,3,3a,4-tetrahydro-1H-pyrrolo[2,1-c][1,2,4]-benzothiadiazin-7-yl cyclobutanecarboxylate]	166 to 170	–
O=C(Oc1ccc2c(c1)S(=O)(=O)NC1CCCN21)c1ccc2ccccc2c1 (stereo not drawn) [Example 20, 5,5-Dioxo-2,3,3a,4-tetrahydro-1H-pyrrolo[2,1-c][1,2,4]-benzothiadiazin-7-yl 2-naphthalenecarboxylate]	207 to 210	–
O=C(Oc1ccc2c(c1)S(=O)(=O)NC1CCCN21)c1ccco1 (stereo not drawn) [Ex. 36, 5,5-Dioxo-2,3,3a,4-tetrahydro-1H-pyrrolo[2,1-c][1,2,4]-benzothiadiazin-7-yl 2-furancarboxylate]	205 to 208	2.0
CC(C)(C)C(=O)Oc1ccc2c(c1)S(=O)(=O)NC1CCCN21 (stereo not drawn) [Ex. 10, 5,5-Dioxo-2,3,3a,4-tetrahydro-1H-pyrrolo[2,1-c][1,2,4]benzothiadiazin-7-yl pivalate]	–	14
O=C(Oc1ccc2c(c1)S(=O)(=O)NC1CCCN21)C1CC1 (stereo not drawn) [Example 18, 5,5-Dioxo-2,3,3a,4-tetrahydro-1H-pyrrolo[2,1-c][1,2,4]-benzothiadiazin-7-yl cyclopropanecarboxylate]	169 to 171	–
